Measurements published in article PMC9865163, “Structural Basis of the Inhibition of L-Methionine γ-Lyase from Fusobacterium nucleatum” (International Journal of Molecular Sciences, 2023).
Where a name gives a salt, the structure may show the parent alone. Read-outs that look alike come from different tables or passages of the source. Where a SMILES comes first, the peptide text is derived from it. The star is where a group is joined. PhAc = O=C(Cc1ccccc1)*

Legend:
[1] = target: T1, Fn1419 (Fusobacterium nucleatum subsp. nucleatum, UniProt Q8RDT4); assay type: biochemical
T1 construct: Fn1419 (GeneBank: AAL95612.1, residues 1–395); His-tag (N); made in house; host or cells: E. coli BL21 (DE3)
Protocol: MGL^Cys activity of Fn1419 was measured as previously reported. Fn1419 (5.75 nM) in assay buffer (40 mM potassium phosphate, pH 7.6, and 10 μM PLP) was mixed with various concentrations of L-cysteine (25, 50, 100, 200, 400, 800, or 1000 μM) and incubated for 15 min at 37 °C. H2S, the reaction product, was then detected based on methylene blue formation. Specifically, 100 μL of solution A (the enzyme reaction solution), 20 μL of solution B (20 mM N′,N′-dimethyl-p-phenylenediamine dihydrochloride and 7.2 M HCl), and 20 μL of solution C (30 mM FeCl3 and 1.2 M HCl) were mixed, and the mixture incubated for 30 min at room temperature.
(§1) Then, 500 μM L-cysteine was added, and the reaction was allowed to proceed for 5 min at 37 °C. The amount of produced H2S was detected indirectly, based on the formation of methylene blue. The reaction mixture consisted of solution A (100 μL), solution B (20 μL), and solution C (20 μL) (the solution composition is described at the enzyme assays) and was incubated for 30 min at 20 °C. The amount of generated methylene blue was detected at 670 nm, using a SpectraMax 190 Microplate Reader (Molecular Devices, San Jose, CA, USA) at 25 °C.

[2] = target: T1, Fn1419; test: IC50 determination on MGL^Cys activity of Fn1419; assay type: biochemical
Protocol: as §1
The concentration of the enzyme was 5.75 nM and the concentration of the six above-mentioned compounds was 500 μM. IC50 values were eventually calculated from non-linear regression curves fitted.

[3] = not told; cited from earlier work
[4] = in vivo; cited from earlier work
[5] = test system: Fn1055; test: Inhibitory effect of gallic acid on H2S production of Fn1055; assay type: biochemical, Fusobacterium nucleatum; details: 500 μM gallic acid, 5.75 nM enzyme
Protocol: as §1

[6] = test system: Mannheimia haemolytica; details: Mannheimia haemolytica strains; cited from earlier work
[7] = test system: Pasteurella multocida; details: Pasteurella multocida strains; cited from earlier work
[8] = test system: antibiotic-resistant S. aureus; details: antibiotic-resistant S. aureus strains; cited from earlier work
[9] = test system: E. coli; details: E. coli strains; cited from earlier work
[10] = test system: Fn1220; test: Inhibitory effect of gallic acid on H2S production of Fn1220; assay type: biochemical, Fusobacterium nucleatum; details: 500 μM gallic acid, 5.75 nM enzyme
Protocol: as §1

[11] = 100 μM compound, 5.75 nM Fn1419, 500 μM L-cysteine
[12] = 5.75 nM enzyme, preincubation 20 min at 20 °C, read-out: IC50 (Fn1419 MGL^Cys activity)

T1 sequence (Q8RDT4 whole entry, the tested form may be a part): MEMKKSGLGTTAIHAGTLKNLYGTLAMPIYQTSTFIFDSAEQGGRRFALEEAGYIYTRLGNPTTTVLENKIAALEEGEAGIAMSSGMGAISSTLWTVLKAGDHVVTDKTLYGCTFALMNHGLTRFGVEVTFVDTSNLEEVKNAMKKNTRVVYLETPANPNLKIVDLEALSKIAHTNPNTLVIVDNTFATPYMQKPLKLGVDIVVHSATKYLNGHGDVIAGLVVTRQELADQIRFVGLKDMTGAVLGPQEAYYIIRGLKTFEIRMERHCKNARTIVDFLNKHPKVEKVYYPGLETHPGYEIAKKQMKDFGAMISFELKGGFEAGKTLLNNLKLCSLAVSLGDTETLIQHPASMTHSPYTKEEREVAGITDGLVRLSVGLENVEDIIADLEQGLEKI

Molecule | effect on MGL^Cys enzyme activity of Fn1419 (in words) [1, 11] | product increase rate (MGL^Cys activity of Fn1419 enhanced) [1, 11] [%] | also measured
COc1cc(C(=O)O)cc(OC)c1OC [gallic acid trimethyl ether] | did not affect |  | 
O=c1cc(-c2ccc(O)cc2)oc2cc(O)cc(O)c12 [apigenin] | not significantly affected |  | 
OC[C@@H](O)[C@@H](O)CO [erythritol] |  | 16.4 | 
C[N+](C)(C)CCOP(=O)([O-])OP(=O)([O-])OC[C@H]1O[C@@H](n2ccc(N)nc2=O)[C@H](O)[C@@H]1O.[Na+] [citicoline sodium] | did not significantly affect enzyme activity |  | 
OCc1c[nH]c2ccccc12 [indole-3-carbinol] | not significantly affected |  | 
CN(C)CCc1ccc(O)cc1.Cl [hordenine HCl] |  | 32.1 | 
O[C@H]1[C@H](O)[C@@H](O)[C@H](O)[C@@H](O)[C@H]1O [inositol] | did not significantly affect enzyme activity |  | 
CCOC(=O)CNC(=O)[C@@H]1CCCN1C(=O)Cc1ccccc1 [noopept] (PhAc-Pro-Gly-OEt) |  | 21.8 | 
COC(=O)c1cc(O)c(O)c(O)c1 [methyl gallate] |  |  | product reduction rate (MGL^Cys activity of Fn1419) [1, 11]: 81.5%
O=C1CCC[C@@H]2[C@H]3CCCN4CCC[C@@H](CN12)[C@@H]34 [matrine] |  | 4.9 | 
Oc1cccc(O)c1O [pyrogallic acid] |  |  | product reduction rate (MGL^Cys activity of Fn1419) [1, 11]: 89.8%; IC50 [2]: 57 µM
CC(=O)N[C@@H](CS)C(=O)O [N-acetyl-cysteine] |  |  | product reduction rate (MGL^Cys activity of Fn1419) [1, 11]: 12%
O=C1c2c(O)cc(O)cc2O[C@H](c2cc(O)c(O)c(O)c2)[C@H]1O [dihydromyricetin] |  |  | permeability [3]: low; product reduction rate (MGL^Cys activity of Fn1419) [1, 11]: 89.5%; IC50 [2, 12]: 23 µM; bioavailability [4]: poor
C/C=C/C=C/C(=O)[O-].[K+] [potassium sorbate] |  |  | product reduction rate (MGL^Cys activity of Fn1419) [1]: 5.3%
C[C@@H]1O[C@@H](OC[C@H]2O[C@@H](Oc3c(-c4ccc(O)c(O)c4)oc4cc(O)cc(O)c4c3=O)[C@H](O)[C@@H](O)[C@@H]2O)[C@H](O)[C@H](O)[C@H]1O [rutin] |  |  | product reduction rate (MGL^Cys activity of Fn1419) [1, 11]: 18.2%
CCOC(=O)c1cc(O)c(O)c(O)c1 [ethyl gallate] |  |  | product reduction rate (MGL^Cys activity of Fn1419) [1, 11]: 81.9%; IC50 [2, 12]: 517 µM
O=C(O)c1cc(O)c(O)c(O)c1 [gallic acid] |  |  | product reduction rate (MGL^Cys activity of Fn1419) [1, 11]: 84.8%; inhibition of Fn1055 (in words) [5]: did not inhibit; IC50 [2]: 121 µM; growth inhibition (in words) [6]: strongly inhibits the growth; growth inhibition (in words) [7]: strongly inhibits the growth; growth inhibition (in words) [8]: strongly inhibits the growth; growth inhibition (in words) [9]: strongly inhibits the growth; inhibition of Fn1220 (in words) [10]: did not inhibit
O=C1O[C@H]([C@@H](O)CO)C(O)=C1O [vitamin C] | did not significantly affect enzyme activity |  | 
O=C(O)c1cccnc1 [niacin] |  |  | effect on MGL^Cys enzyme activity of Fn1419 (in words) [1]: did not significantly affect enzyme activity
NCCCC(=O)O [GABA] |  | 9.9 | 
Nc1ncnc2c1ncn2[C@@H]1O[C@H](CO)C[C@H]1O [cordycepin] | did not significantly affect enzyme activity |  | 
COc1cc(/C=C/C(=O)CC(=O)/C=C/c2ccc(O)c(OC)c2)ccc1O [curcumin] |  |  | product reduction rate (MGL^Cys activity of Fn1419) [1, 11]: 53.9%

Molecule | effect on MGL^Cys enzyme activity of Fn1419 (in words) [1, 11] | product increase rate (MGL^Cys activity of Fn1419 enhanced) [1, 11] [%] | also measured
O=C(/C=C/c1ccc(O)c(O)c1)O[C@@H]1C[C@](O)(C(=O)O)C[C@@H](O)[C@H]1O [chlorogenic acid] | did not significantly affect enzyme activity |  | 
NC(=O)CN1CC(c2ccccc2)CC1=O (stereo not shown) [phenylpiracetam] | did not significantly affect enzyme activity |  | 
O=C(O)/C=C/c1ccc(O)cc1 [p-coumaric, p-coumaric acid] | not significantly affected |  | 
Cc1ncc(CO)c(CO)c1O [pyridoxine-HCl] | did not significantly affect enzyme activity |  | 
COc1cc2c(cc1OC)[C@@H]1Cc3ccc(OC)c(OC)c3CN1CC2 [L-tetrahydropal matrine] |  | 71.7 | 
O=c1c(O)c(-c2ccc(O)cc2)oc2cc(O)cc(O)c12 [kaempferol] |  |  | product reduction rate (MGL^Cys activity of Fn1419) [1, 11]: 40.4%
Cl.NCC(CC(=O)O)c1ccccc1 (stereo not shown) [phenibut HCl] |  | 61.8 | 
C[N+](C)(C)CCO.O=C([O-])C(O)C(O)C(=O)O (stereo not shown) [choline bitartrate] |  |  | product increase rate (MGL^Cys activity of Fn1419 enhanced) [1]: 13.3%
O=C(O)CCCCC1CCSS1 (stereo not drawn) [α-lipoic acid] | not significantly affected |  | 
CCCCCCCC/C=C\CCCCCCCC(N)=O [oleamide] |  | 24.6 | 
CC(=O)O[C@H](CC(=O)O)C[N+](C)(C)C.[Cl-] [acetyl L-carnitine HCl] | not significantly affected |  | 
chondroitin sulfate |  | 5.8 | 
CNCC(O)c1ccc(O)cc1 (stereo not shown) [synephrine] |  |  | product reduction rate (MGL^Cys activity of Fn1419) [1, 11]: 32.4%
N[C@@H](Cc1c[nH]c2ccc(O)cc12)C(=O)O [5-hydroxyl tryptophan] |  | 53.0 | 
C[N+](C)(C)CC(=O)O [betaine-HCl] |  | 24 | 
OC[C@@H](O)[C@H](O)[C@@H](O)CO [xylitol] | did not significantly affect enzyme activity |  | 
N[C@@H](CCC(=O)O)C(=O)O [L-glutamate] | did not significantly affect enzyme activity |  | 
O.O.O.O.O.OC[C@H]1O[C@H](OC[C@H]2O[C@H](O[C@]3(CO)O[C@H](CO)[C@@H](O)[C@@H]3O)[C@H](O)[C@@H](O)[C@@H]2O)[C@H](O)[C@@H](O)[C@H]1O [D-raffinose pentahydrate] |  | 72.5 | 
CN(CC(=O)O)C(=N)N.O [creatine monohydrate] |  |  | product reduction rate (MGL^Cys activity of Fn1419) [1, 11]: 11.2%
O=C(O)C1(O)C[C@@H](O)C(O)[C@H](O)C1 (stereo partly drawn) [D-quinic acid] |  | 35.1 | 
C[N+](C)(C)C[C@H](O)CC(=O)[O-] [L-carnitine] | did not significantly affect enzyme activity |  | 
